{"source": "paper PMC11078746", "about": "(Nature, 2024)", "key": {"[1]": {"tested_on": "SW48 xenografts", "assay": "SW48 cell-derived xenograft efficacy, HRO761 orally once daily", "assay_type": "in vivo, mouse", "method": "All animal studies were conducted in accordance with ethics and procedures covered by permit BS-2275 and BS-1975 issued by the Kantonales Veterinäramt Basel-Stadt and in strict adherence to guidelines of the Eidgenössisches Tierschutzgesetz and the Eidgenössische Tierschutzverordnung, Switzerland. All animal studies were approved by the internal ethics committee. All animals had access to food and water ad libitum and were identified with transponders. They were housed in a specific-pathogen-free facility in IVC racks under a 12 h–12 h light–dark cycle. To establish cell-line-derived xenograft models, 6–7-week-old female athymic nude (Crl:NU(NCr)-Foxn1^nu) or SCID-BEIGE (CB17.Cg-PrkdcscidLystbg-J/Crl) mice from Charles River were engrafted subcutaneously with 5 million tumour cells in HBSS (H6648, Sigma-Aldrich). For SNU-407, Lovo, IM95, RL95.2, Ishikawa and IGROV-1, the cells were concentrated in 50% Matrigel (354234, Corning). Patient-derived xenografts were induced and expanded by transplantation as previously described. […] For the efficacy experiment, mice were randomized into groups (n = 5–6) for a mean tumour size of 100–150 mm^3. […] Blood samples were collected on day 7 and 91. […] Tumour responses are reported with the measures of tumour volumes from the treatment start. […] Animals were randomized (n = 3) and tumour samples were collected at 0, 1, 4, 8 and 24 h on the first day and then collected 4 h after the last treatment on day 3, 8, 10, 14 (including a 24 h timepoint), 17 and 21. Tumours were excised, weighed, either frozen in liquid nitrogen and cryogenic dry pulverized with the CryoPrep system (model CP-02, Covaris) or processed to FFPE after fixation. […] On day 12, blood samples were collected for PK analysis. On the last day (3 h after the last treatment), tumours were excised, weighed, frozen in liquid nitrogen and cryogenic dry pulverized for PD analysis."}, "[2]": {"tested_on": "Ishikawa", "assay": "CFA 10-14 day clonogenic assay", "assay_type": "cell-based", "details": "Homo sapiens"}, "[3]": {"tested_on": "HEC1B", "assay": "CFA 10-14 day clonogenic assay", "assay_type": "cell-based", "details": "Homo sapiens, HEC-1B"}, "[4]": {"tested_on": "LS411N", "assay": "CFA 10-14 day clonogenic assay", "assay_type": "cell-based", "details": "Homo sapiens, LS-411N"}}, "note": "Several values for one entry are separate records, joined by “and”; a condition that tells them apart may be missing. Equal entries are not always repeated."}
{"smiles": "CCc1c(N2CCN(C(=O)c3ncnc(C)c3O)CC2)c(=O)n2nc(C3=CCOCC3)nc2n1CC(=O)Nc1ccc(C(F)(F)F)cc1Cl", "note": "[HRO761]", "values": [{"measurement": "TVol, individual mouse", "setting": "[1]; HRO761 60mg/kg, day 14 post 1st dose, 60 mg/kg", "value": "168.86 mm3 and 112.65 mm3 and 68.51 mm3 and 225.46 mm3 and 143.2 mm3"}, {"measurement": "Mean TVol", "setting": "[1]; HRO761 60mg/kg, day 17 post 1st dose", "value": 92.17, "unit": "mm3"}, {"measurement": "TVol, individual mouse", "setting": "[1]; HRO761 60mg/kg, day 17 post 1st dose, 60 mg/kg", "value": "122.04 mm3 and 68.7 mm3 and 47.51 mm3 and 127.77 mm3 and 94.82 mm3"}, {"measurement": "Mean TVol", "setting": "[1]; HRO761 60mg/kg, day 21 post 1st dose", "value": 94.01, "unit": "mm3"}, {"measurement": "TVol, individual mouse", "setting": "[1]; HRO761 60mg/kg, day 21 post 1st dose, 60 mg/kg", "value": "102.4 mm3 and 77.05 mm3 and 73.43 mm3 and 131.39 mm3 and 85.79 mm3"}, {"measurement": "Mean TVol", "setting": "[1]; HRO761 60mg/kg, day 24 post 1st dose", "value": 58.88, "unit": "mm3"}, {"measurement": "TVol, individual mouse", "setting": "[1]; HRO761 60mg/kg, day 24 post 1st dose, 60 mg/kg", "value": "71.44 mm3 and 52.46 mm3 and 38.57 mm3 and 82.39 mm3 and 49.52 mm3"}, {"measurement": "Mean TVol", "setting": "[1]; HRO761 60mg/kg, day 28 post 1st dose", "value": 51.50, "unit": "mm3"}, {"measurement": "TVol, individual mouse", "setting": "[1]; HRO761 60mg/kg, day 28 post 1st dose, 60 mg/kg", "value": "56.2 mm3 and 60.49 mm3 and 22.48 mm3 and 76.24 mm3 and 42.11 mm3"}, {"measurement": "Mean TVol", "setting": "[1]; HRO761 60mg/kg, day 31 post 1st dose", "value": 37.85, "unit": "mm3"}, {"measurement": "Mean TVol", "setting": "[1]; HRO761 60mg/kg, day 35 post 1st dose", "value": 35.63, "unit": "mm3"}, {"measurement": "Mean TVol", "setting": "[1]; HRO761 60mg/kg, day 38 post 1st dose", "value": 32.12, "unit": "mm3"}, {"measurement": "Mean TVol", "setting": "[1]; HRO761 60mg/kg, day 42 post 1st dose", "value": 26.69, "unit": "mm3"}, {"measurement": "Mean TVol", "setting": "[1]; HRO761 60mg/kg, day 45 post 1st dose", "value": 28.41, "unit": "mm3"}, {"measurement": "Mean TVol", "setting": "[1]; HRO761 60mg/kg, day 49 post 1st dose", "value": 28.59, "unit": "mm3"}, {"measurement": "Mean TVol", "setting": "[1]; HRO761 60mg/kg, day 52 post 1st dose", "value": 39.66, "unit": "mm3"}, {"measurement": "Mean TVol", "setting": "[1]; HRO761 60mg/kg, day 56 post 1st dose", "value": 41.29, "unit": "mm3"}, {"measurement": "Mean TVol", "setting": "[1]; HRO761 60mg/kg, day 59 post 1st dose", "value": 58.21, "unit": "mm3"}, {"measurement": "Mean TVol", "setting": "[1]; HRO761 60mg/kg, day 63 post 1st dose", "value": 63.07, "unit": "mm3"}, {"measurement": "Mean TVol", "setting": "[1]; HRO761 60mg/kg, day 66 post 1st dose", "value": 73.43, "unit": "mm3"}, {"measurement": "Mean TVol", "setting": "[1]; HRO761 60mg/kg, day 70 post 1st dose", "value": 92.32, "unit": "mm3"}, {"measurement": "Mean TVol", "setting": "[1]; HRO761 60mg/kg, day 73 post 1st dose", "value": 100.10, "unit": "mm3"}, {"measurement": "Mean TVol", "setting": "[1]; HRO761 60mg/kg, day 76 post 1st dose", "value": 118.12, "unit": "mm3"}, {"measurement": "Mean TVol", "setting": "[1]; HRO761 60mg/kg, day 79 post 1st dose", "value": 144.54, "unit": "mm3"}, {"measurement": "Mean TVol", "setting": "[1]; HRO761 60mg/kg, day 83 post 1st dose", "value": 167.90, "unit": "mm3"}, {"measurement": "Mean TVol", "setting": "[1]; HRO761 60mg/kg, day 86 post 1st dose", "value": 197.43, "unit": "mm3"}, {"measurement": "Mean TVol", "setting": "[1]; HRO761 60mg/kg, day 90 post 1st dose", "value": 250.29, "unit": "mm3"}, {"measurement": "Mean TVol", "setting": "[1]; HRO761 60mg/kg, day 92 post 1st dose", "value": 257.93, "unit": "mm3"}, {"measurement": "Mean TVol", "setting": "[1]; HRO761 120mg/kg, day 0 post 1st dose", "value": 148.61, "unit": "mm3"}, {"measurement": "Mean TVol", "setting": "[1]; HRO761 120mg/kg, day 3 post 1st dose", "value": 165.08, "unit": "mm3"}, {"measurement": "Mean TVol", "setting": "[1]; HRO761 120mg/kg, day 7 post 1st dose", "value": 155.01, "unit": "mm3"}, {"measurement": "Mean TVol", "setting": "[1]; HRO761 120mg/kg, day 10 post 1st dose", "value": 143.90, "unit": "mm3"}, {"measurement": "Mean TVol", "setting": "[1]; HRO761 120mg/kg, day 14 post 1st dose", "value": 109.57, "unit": "mm3"}, {"measurement": "TVol, individual mouse", "setting": "[1]; HRO761 120mg/kg, day 14 post 1st dose, 120 mg/kg", "value": "89.55 mm3 and 116.21 mm3 and 96.68 mm3 and 110.56 mm3 and 134.85 mm3"}, {"measurement": "Mean TVol", "setting": "[1]; HRO761 120mg/kg, day 17 post 1st dose", "value": 76.89, "unit": "mm3"}, {"measurement": "TVol, individual mouse", "setting": "[1]; HRO761 120mg/kg, day 17 post 1st dose, 120 mg/kg", "value": "65.99 mm3 and 76.61 mm3 and 69.65 mm3 and 76.31 mm3 and 95.9 mm3"}, {"measurement": "Mean TVol", "setting": "[1]; HRO761 120mg/kg, day 21 post 1st dose", "value": 60.65, "unit": "mm3"}, {"measurement": "TVol, individual mouse", "setting": "[1]; HRO761 120mg/kg, day 21 post 1st dose, 120 mg/kg", "value": "36.03 mm3 and 67.66 mm3 and 49.83 mm3 and 57.7 mm3 and 92.01 mm3"}, {"measurement": "Mean TVol", "setting": "[1]; HRO761 120mg/kg, day 24 post 1st dose", "value": 40.88, "unit": "mm3"}, {"measurement": "TVol, individual mouse", "setting": "[1]; HRO761 120mg/kg, day 24 post 1st dose, 120 mg/kg", "value": "38.27 mm3 and 45.09 mm3 and 38.11 mm3 and 31.94 mm3 and 50.97 mm3"}, {"measurement": "Mean TVol", "setting": "[1]; HRO761 120mg/kg, day 28 post 1st dose", "value": 35.35, "unit": "mm3"}, {"measurement": "TVol, individual mouse", "setting": "[1]; HRO761 120mg/kg, day 28 post 1st dose, 120 mg/kg", "value": "32.65 mm3 and 37.62 mm3 and 34.55 mm3 and 23.01 mm3 and 48.93 mm3"}, {"measurement": "Mean TVol", "setting": "[1]; HRO761 120mg/kg, day 31 post 1st dose", "value": 23.02, "unit": "mm3"}, {"measurement": "Mean TVol", "setting": "[1]; HRO761 120mg/kg, day 35 post 1st dose", "value": 18.60, "unit": "mm3"}, {"measurement": "Mean TVol", "setting": "[1]; HRO761 120mg/kg, day 38 post 1st dose", "value": 15.04, "unit": "mm3"}, {"measurement": "Mean TVol", "setting": "[1]; HRO761 120mg/kg, day 42 post 1st dose", "value": 15.24, "unit": "mm3"}, {"measurement": "Mean TVol", "setting": "[1]; HRO761 120mg/kg, day 45 post 1st dose", "value": 22.14, "unit": "mm3"}, {"measurement": "Mean TVol", "setting": "[1]; HRO761 120mg/kg, day 49 post 1st dose", "value": 17.54, "unit": "mm3"}, {"measurement": "Mean TVol", "setting": "[1]; HRO761 120mg/kg, day 52 post 1st dose", "value": 14.62, "unit": "mm3"}, {"measurement": "Mean TVol", "setting": "[1]; HRO761 120mg/kg, day 56 post 1st dose", "value": 23.36, "unit": "mm3"}, {"measurement": "Mean TVol", "setting": "[1]; HRO761 120mg/kg, day 59 post 1st dose", "value": 24.12, "unit": "mm3"}, {"measurement": "Mean TVol", "setting": "[1]; HRO761 120mg/kg, day 63 post 1st dose", "value": 25.71, "unit": "mm3"}, {"measurement": "Mean TVol", "setting": "[1]; HRO761 120mg/kg, day 66 post 1st dose", "value": 34.04, "unit": "mm3"}, {"measurement": "Mean TVol", "setting": "[1]; HRO761 120mg/kg, day 70 post 1st dose", "value": 39.42, "unit": "mm3"}, {"measurement": "Mean TVol", "setting": "[1]; HRO761 120mg/kg, day 73 post 1st dose", "value": 45.77, "unit": "mm3"}, {"measurement": "Mean TVol", "setting": "[1]; HRO761 120mg/kg, day 76 post 1st dose", "value": 45.68, "unit": "mm3"}, {"measurement": "Mean TVol", "setting": "[1]; HRO761 120mg/kg, day 79 post 1st dose", "value": 54.31, "unit": "mm3"}, {"measurement": "Mean TVol", "setting": "[1]; HRO761 120mg/kg, day 83 post 1st dose", "value": 66.91, "unit": "mm3"}, {"measurement": "Mean TVol", "setting": "[1]; HRO761 120mg/kg, day 86 post 1st dose", "value": 85.46, "unit": "mm3"}, {"measurement": "Mean TVol", "setting": "[1]; HRO761 120mg/kg, day 90 post 1st dose", "value": 91.43, "unit": "mm3"}, {"measurement": "Mean TVol", "setting": "[1]; HRO761 120mg/kg, day 92 post 1st dose", "value": 94.97, "unit": "mm3"}, {"measurement": "Best average response", "setting": "[1]; SW48, colorectal carcinoma, 60 or 120 mg/kg", "value": -90}, {"measurement": "tumour regressions", "setting": "[1]; higher doses than 20 mg per kg, once daily oral, up to 60 days", "value": "75–90%"}, {"measurement": "GI50", "setting": "[2]", "value": 51, "unit": "nM"}, {"measurement": "GI50", "setting": "[3]", "value": "≥ 10000", "unit": "nM"}, {"measurement": "GI50", "setting": "[4]", "value": 30, "unit": "nM"}]}
